Test results reported in US20210230554A1, “GENERATION OF FUNCTIONAL BETA CELLS FROM HUMAN PLURIPOTENT STEM CELL-DERIVED ENDOCRINE PROGENITORS” (Novo Nordisk A/S, priority 2018, published 2021).

Assays:
[1] = test system: endocrine progenitor cells; assay: BC step 1 screen: flow cytometry of INS, NKX6.1 and GCG expression; type: cell-based, human; conditions: added on top of BC step 1 medium comprising DZNEP, Alk5i, Heparin, Nicotinamide; FIG. 3
Protocol: As a first step towards generating fully functional mature beta cells, we screened for factors to generate maximal numbers of immature INS+/NKX6.1+ cells (BC step 1 screen). […]
Compounds were screened for their ability to induce INS+, NKX6.1+ double positive immature BCs and few GCG positive cells within a 7 days period. Media change was performed daily. Cells were fixed at day 4 and day 7 of BC step 1 and analysed for INS NKX6.1 and GCG expression using flow cytometry (see Table 1 and FIG. 2). Briefly, differentiated endocrine cells were dispersed into single-cell suspension by incubation with TrypLE Express at 37° C. for 10 min. Differentiated endocrine cells were resuspended in 4% paraformaldehyde, washed in PBS followed by incubation with primary antibodies overnight and then secondary antibodies for 1 hour. The differentiated hPSCs co-expressed C-peptide+/NKX6.1+ with few cells expressing the α-cell hormone glucagon (FIG. 2). When quantified by flow cytometry, 48% of the cells co-expressed C-peptide+/NKX6-1 (FIG. 2), more than previously reported with stem cell-derived beta cells (Pagliuca et al., Cell. 2014 Oct. 9; 159(2):428-39. doi: 10.1016/j.cell.2014.09.040; Rezania et al., Nat Biotechnol. 2014 November; 32(11):1121-33. doi: 10.1038/nbt.3033. Epub 2014 Sep. 11).
Hits compounds of Table 2 have been identified in a primary screen.

hPSC-derived beta cells = assay: Perfusion assay of dynamic human insulin secretion in vitro; type: cell-based
Protocol: Mature beta cells are functionally defined by their rapid response to elevate glucose. Secretion of human insulin by beta cells at the end of BC step 2 method with BC step 2 medium comprising 50 μM GABA, 10 μM Alk5i, 1 μM T3 was measured as repeated responses to 20 mM glucose±1 μM exendin-4 a GLP1-receptor agonist or ±the anti-diabetic sulfonylurea compound Tolbutamide within a perfusion system.
Briefly, groups of 300 hand-picked, clusters of hESC- or hiPSC-derived cell clusters were suspended with beads (Bio-Rad #150-4124) in plastic chambers of Biorep PERFUSION SYSTEM (Biorep #PERI-4.2). Under temperature and CO2-controlled conditions, the cells were perfused at 0.5 ml min−1 with a Krebs buffer. Prior to sample collection, cells were equilibrated under basal (2 mM glucose) conditions for 1 h. During perfusion cells were exposed to repeated challenges with 20 mM glucose±1 μM exendin-4 or ±100 μM Tolbutamide. At the end of perfusion, cells were exposed to cAMP-elevating agents (dbcAMP) on top of 20 mM glucose. Insulin secretion was measured by human insulin ELISA (Mercodia).

[2] = test system: stem cell-derived endocrine progenitor cells; assay: BC step 1 medium with or without Nicotinamide: BC FACS phenotype; type: cell-based, human; conditions: BC step 1 medium with or without 10 mM Nicotinamide, 4 days, then 2 days BC step 2; FIG. 16
Protocol: To evaluate the effect of Nicotinamide, stem cell-derived endocrine progenitor cells were differentiated in BC step 1 medium with or without Nicotinamide, followed by a culturing step in BC step 2 medium.
Cell were differentiated to endocrine progenitors and then subjected to BC step 1 medium for 4 days (BC step 1 medium comprises RPMI1640 with Glutamax, 0.1% Pen/Strep, 12% KOSR, 10 μM Alk5i, 1 μM T3, 1 μM DZNEP, 10 μg/ml heparin, 25 μM DAPT, and with or without 10 mM Nicotinamide).
Cells were then subjected to BC step 2 cell culture medium for 2 days before analysing by FACS. BC step 2 medium consisted of: RPMI1640 with Glutamax, 0.1% Pen/Strep, 12% KOSR, 50 μM GABA, 10 μM Alk5i, 1 μM T3 and 10 μM DZNEP.

## Dibutyryl-cAMP [dbcAMP]
[1]
  number of INS+/NKX6.1+ cells: highest number of INS+/NKX6.1+ cells

## C[C@H](NC(=O)Cc1cc(F)cc(F)c1)C(=O)NC(C(=O)OC(C)(C)C)c1ccccc1 (some centres unmarked) [DAPT]
[1]
  number of INS+/NKX6.1+ cells: highest number of INS+/NKX6.1+ cells

## CCCCNC(=O)NS(=O)(=O)c1ccc(C)cc1 [tolbutamide]
hPSC-derived beta cells; day 7 of BC step 2, 20 mM glucose ± 100 μM Tolbutamide
  effect on insulin secretion: significant additive effect

## NC(=O)c1cccnc1 [Nicotinamide]
[2]
  BC FACS phenotype: not affected

## exendin-4
hPSC-derived beta cells; 20 mM glucose ± 1 μM exendin-4
  level of insulin secretion in the hPSC-derived beta cells: increased the level of insulin secretion
